Assay results from patent US7312231B2, “Quinuclidine carbamate derivatives and their use as M3 antagonists” (priority 2000, dated 2007).
Where two headings read alike, the source gives them in different places.

Assays:
[1] = biological target: T1, human muscarinic M3 receptors (Homo sapiens, UniProt P20309); assay: biochemical; assay type: binding
T1 construct: expressed in transfected cells; host or cells: Chinese hamster ovary-K1 (CHO) cells, membrane preparations
Procedure: The binding of [^3H]-NMS to human muscarinic receptors was performed according to Waelbroek et al (1990), Mol. Pharmacol., 38:267–273. Assays were carried out at 25° C. Membrane preparations from stably transfected Chinese hamster ovary-K1 cells (CHO) expressing the genes for the human muscarinic M3 receptors were used.
For determination of IC50, membrane preparations were suspended in DPBS to a final concentration of 89 μg/ml for the M3 subtype. The membrane suspension wasincubated with the tritiated compound for 60 min. After incubation the membrane fraction was separated by filtration and the bound radioactivity determined. […] At least six concentrations were assayed in duplicate to generate individual displacement curves.

[2] = [3H]-NMS displacement, membranes of CHO-K1 cells expressing human M3, 25° C., 60 min, read-out: BINDING TO RECPTOR M3 (IC50 nM)

T1 sequence (P20309 whole entry): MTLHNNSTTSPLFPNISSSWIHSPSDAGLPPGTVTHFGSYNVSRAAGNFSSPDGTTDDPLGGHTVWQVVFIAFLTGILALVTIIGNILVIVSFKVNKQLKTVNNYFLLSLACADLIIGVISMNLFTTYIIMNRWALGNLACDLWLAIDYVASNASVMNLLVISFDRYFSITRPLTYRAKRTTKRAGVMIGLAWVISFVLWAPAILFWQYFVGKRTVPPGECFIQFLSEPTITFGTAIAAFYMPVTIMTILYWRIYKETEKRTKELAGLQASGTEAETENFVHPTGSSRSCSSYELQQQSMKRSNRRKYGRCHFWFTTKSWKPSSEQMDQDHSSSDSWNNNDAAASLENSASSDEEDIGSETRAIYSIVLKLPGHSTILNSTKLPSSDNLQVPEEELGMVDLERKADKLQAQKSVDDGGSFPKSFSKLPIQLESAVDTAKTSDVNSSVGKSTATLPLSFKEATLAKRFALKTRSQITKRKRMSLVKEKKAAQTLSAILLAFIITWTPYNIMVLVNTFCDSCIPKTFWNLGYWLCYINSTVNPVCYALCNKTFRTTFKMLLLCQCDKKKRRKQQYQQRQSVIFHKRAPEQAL

Compound	melting point	IC50 [1, 2]	IC50 [1]
O=C(O[C@H]1C[N+]2(CCc3ccccc3)CCC1CC2)N(Cc1ccccc1)c1ccccc1.[Br-]	81 °C		
O=C(O[C@@H]1C[N+]2(CCCc3ccccc3)CCC1CC2)N(Cc1ccccc1)c1ccccc1.[Br-]	64 °C		
C=CC[N+]12CCC(CC1)[C@@H](OC(=O)N(CCCC)c1ccccc1)C2.[Br-]	141 °C		
CCCCN(C(=O)O[C@H]1C[N+]2(CCc3ccccc3)CCC1CC2)c1ccccc1.[Br-]	139 °C		
CCCCN(C(=O)O[C@H]1C[N+]2(CCCc3ccccc3)CCC1CC2)c1ccccc1.[Br-]	120 °C		
1-Allyl-3-(R)(phenylthiophen-2-ylmethylcarbamoyloxy)-1-azoniabicyclo [2.2.2]octane; bromide [Example 92]		11.5 nM	
3-(R)(Phenylthiophen-3-ylmethylcarbamoyloxy)-1-(2-phenoxyethyl)-1-azonia bicyclo[2.2.2]octane; bromide [Example 136]		9 nM	
O=C(O[C@H]1CN2CCC1CC2)N(Cc1ccccc1)c1ccccc1 [Example 1, Benzylphenylcarbamic acid 1-azabicyclo[2.2.2]oct-3-(R)yl ester]		5 nM	
O=C(O[C@H]1C[N+]2(CC=Cc3ccccc3)CCC1CC2)N(Cc1ccccc1)c1ccccc1.[Br-] [Example 5, 3-(R)(Benzylphenylcarbamoyloxy)-1-(3-phenylallyl)-1-azoniabicyclo[2.2.2]octane; bromide]	129 °C	11.1 nM	
C=CC[N+]12CCC(CC1)[C@@H](OC(=O)N(Cc1ccccc1)c1ccccc1)C2.[Br-] [Example 6, 1-Allyl-3-(R)(benzylphenylcarbamoyloxy)-1-azoniabicyclo[2.2.2]octane; bromide]	70 °C	18 nM	
O=C(O[C@H]1C[N+]2(CCCc3ccccc3)CCC1CC2)N(Cc1ccccc1)c1ccccc1.[Br-] [Example 31, 3-(R)(Benzylphenylcarbamoyloxy)-1-(3-phenylpropyl)-1-azoniabicyclo[2.2.2]octane; bromide]	101 °C	8 nM	
O=C(O[C@H]1C[N+]2(CCOc3ccccc3)CCC1CC2)N(Cc1ccccc1)c1ccccc1 [Example 32, 3-(R)(Benzylphenylcarbamoyloxy)-1-(2-phenoxyethyl)-1-azoniabicyclo[2.2.21 octane; bromide]		8 nM	
CCCCN(C(=O)O[C@H]1C[N+]2(CC=Cc3ccccc3)CCC1CC2)c1ccccc1.[Br-] [Example 58, 3-(R)(Butylphenylcarbamoyloxy)-1-(3-phenylallyl)-1-azoniabicyclo[2.2.2]octane; bromide]	144 °C	8 nM	
CCCCN(C(=O)O[C@H]1C[N+]2(CCOc3ccccc3)CCC1CC2)c1ccccc1 [Example 79, 3-(R)(Butylphenylcarbamoyloxy)-1-(2-phenoxyethyl)-1-azoniabicyclo[2.2.2]octane; bromide]		14 nM	
O=C(O[C@H]1CN2CCC1CC2)N(Cc1cccs1)c1ccccc1 [Example 82, Phenylthiophen-2-ylmethylcarbamic acid 1-azabicyclo[2.2.2]oct-3-(R)yl ester]		4.5 nM	
O=C(O[C@H]1C[N+]2(CCCc3cccs3)CCC1CC2)N(Cc1cccs1)c1ccccc1 [Example 90, 3-(R)(phenylthiophen-2-ylmethylcarbamoyloxy)-1-(3-thiophen-2-ylpropyl)-1-azoniabicyclo[2.2.2]octane; bromide]		9.2 nM	
O=C(O[C@H]1C[N+]2(CCOc3ccccc3)CCC1CC2)N(Cc1cccs1)c1ccccc1 [Example 91, 1-(2-Phenoxyethyl)-3-(R)(phenylthiophen-2-ylmethylcarbamoyloxy)-1-azonia bicyclo[2.2.2]octane; bromide]		6.8 nM	
CCCCCN(C(=O)O[C@H]1CN2CCC1CC2)c1ccccc1 [Example 104, Pentylphenylcarbamic acid 1-azabicyclo[2.2.2]oct-3-(R)yl ester]			19 nM
O=C(O[C@H]1CN2CCC1CC2)N(Cc1ccsc1)c1ccccc1 [Example 126, Phenylthiophen-3-ylmethylcarbamic acid 1-azabicyclo[2.2.2]oct-3-(R)yl ester]		8.6 nM	
O=C(O[C@H]1C[N+]2(CCCc3ccccc3)CCC1CC2)N(Cc1cccs1)Cc1cccs1 [Example 142, 3-(R)(bis-thiophen-2-ylmethylcarbamoyloxy)-1-(3-phenylpropyl)-1-azoniabicyclo [2.2.2]octane; bromide]		17.8 nM	
O=C(O[C@H]1C[N+]2(CCCc3cccs3)CCC1CC2)N(Cc1cccs1)Cc1cccs1 [Example 146, 3-(R)(bis-thiophen-2-ylmethylcarbamoyloxy)-1-(3-thiophen-2-ylpropyl)-1-azonia bicyclo[2.2.2]octane; bromide]		14.4 nM	
O=C(O[C@H]1CN2CCC1CC2)N(Cc1ccco1)c1ccccc1 [Example 153, Furan-2-ylmethylphenylcarbamic acid 1-azabicyclo[2.2.2]oct-3-(R)yl ester]		6 nM	
O=C(O[C@H]1CN2CCC1CC2)N(Cc1ccco1)Cc1ccco1 [Example 156, bis-Furan-2-ylmethylcarbamic acid 1-azabicyclo[2.2.2]oct-3-(R)yl ester]		18 nM	
